In PubChem BioAssay (NCI):
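Where inhibition never reached the appropriate level, the endpoint shown equals the highest concentration tested. Otherwise, values were interpolated linearly from a five-concentration, 48-hour dose response in 96-well plates. GI50: concentration for 50% inhibition of growth. TGI: concentration producing complete growth inhibition.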

Assays:
Assay in all cases: NCI-60 cell line screen, 48 h
[1] = system: HT29 colon
[2] = system: BT-549 breast
[3] = system: MOLT-4 leukemia
[4] = system: HCT-15 colon
[5] = system: DU-145 prostate
[6] = system: SK-OV-3 ovarian
[7] = system: ACHN renal
[8] = system: OVCAR-8 ovarian
[9] = system: COLO 205 colon
[10] = system: SN12C renal
[11] = system: OVCAR-4 ovarian
[12] = system: IGROV1 ovarian
[13] = system: KM12 colon
[14] = system: HOP-92 NSCLC
[15] = system: UACC-257 melanoma
[16] = system: TK-10 renal
[17] = system: PC-3 prostate
[18] = system: SNB-19 CNS
[19] = system: M14 melanoma
[20] = system: SK-MEL-5 melanoma
[21] = system: SR leukemia
[22] = system: CCRF-CEM leukemia
[23] = system: MCF7 breast
[24] = system: 786-0 renal
[25] = system: HL-60(TB) leukemia
[26] = system: SK-MEL-2 melanoma
[27] = system: A549 NSCLC
[28] = system: NCI-H460 lung
[29] = system: SF-539 CNS
[30] = system: NCI/ADR-RES ovarian
[31] = system: UACC-62 melanoma
[32] = system: HCC-2998 colon
[33] = system: NCI-H226 lung
[34] = system: SNB-75 CNS
[35] = system: NCI-H522 lung
[36] = system: T-47D breast
[37] = system: UO-31 renal
[38] = system: K-562 leukemia
[39] = system: SK-MEL-28 melanoma
[40] = system: OVCAR-3 ovarian
[41] = system: RPMI-8226 leukemia
[42] = system: NCI-H23 lung
[43] = system: SF-295 CNS
[44] = system: EKVX NSCLC
[45] = system: CAKI-1 renal
[46] = system: RXF 393 renal
[47] = system: MDA-MB-468 breast
[48] = system: OVCAR-5 ovarian
[49] = system: HOP-62 NSCLC
[50] = system: MALME-3M melanoma
[51] = system: MDA-MB-435
[52] = system: SF-268 CNS
[53] = system: HCT-116 colon
[54] = system: U251 CNS
[55] = system: A498 renal

Compound COc1ccc(-c2ccnc(SCc3cc4ccccc4[nH]c3=O)n2)cc1OC has a GI50 [1] of 18.8 µM, a TGI [1] of 40.6 µM and a GI50 [2] of 7.58 µM. It also gave a TGI [2] of 34.8 µM, a GI50 [3] of 7.17 µM and a TGI [3] of over 100 µM. The GI50 [4] was 20 µM, the TGI [4] was over 100 µM and the GI50 [5] was 18.1 µM. For the same compound, the TGI [5] was 71.9 µM, the GI50 [6] was 19.9 µM and the TGI [6] was 41.7 µM. The GI50 [7] was 13.5 µM, the TGI [7] was 27.8 µM and the GI50 [8] was 23.2 µM. It also gave a TGI [8] of over 100 µM, a GI50 [9] of 33.9 µM and a TGI [9] of over 100 µM. The GI50 [10] was 12.4 µM, the TGI [10] was 34.9 µM and the GI50 [11] was 19.1 µM. It also gave a TGI [11] of 84.6 µM, a GI50 [12] of 16.8 µM and a TGI [12] of 39.8 µM. It also gave a GI50 [13] of 30.8 µM, a TGI [13] of over 100 µM and a GI50 [14] of 1.84 µM. The TGI [14] was 14.9 µM, the GI50 [15] was 30.6 µM and the TGI [15] was 89.9 µM. It also gave a GI50 [16] of 17.5 µM, a TGI [16] of 58.9 µM and a GI50 [17] of 16.5 µM. The TGI [17] was 50.8 µM, the GI50 [18] was 16.9 µM and the TGI [18] was 54 µM. The GI50 [19] was 40.3 µM, the TGI [19] was over 100 µM and the GI50 [20] was 13 µM. It also gave a TGI [20] of 42.8 µM, a GI50 [21] of 18.3 µM and a TGI [21] of over 100 µM. It also gave a GI50 [22] of 34.3 µM, a TGI [22] of over 100 µM and a GI50 [23] of 26.9 µM. For the same compound, the TGI [23] was over 100 µM, the GI50 [24] was 14.5 µM and the TGI [24] was 37.9 µM. The GI50 [25] was 99.6 µM, the TGI [25] was over 100 µM and the GI50 [26] was 16.9 µM. For the same compound, the TGI [26] was 50.4 µM, the GI50 [27] was 23.6 µM and the TGI [27] was over 100 µM. It also gave a GI50 [28] of 26.8 µM, a TGI [28] of over 100 µM and a GI50 [29] of 12.4 µM. For the same compound, the TGI [29] was 27.4 µM, the GI50 [30] was 14.3 µM and the TGI [30] was 49.8 µM. It also gave a GI50 [31] of 14.5 µM, a TGI [31] of 41 µM and a GI50 [32] of 21.4 µM. The TGI [32] was 58.8 µM, the GI50 [33] was 13 µM and the TGI [33] was 37.2 µM. For the same compound, the GI50 [34] was 4.36 µM, the TGI [34] was 23.6 µM and the GI50 [35] was 18.3 µM. The TGI [35] was 61.1 µM, the GI50 [36] was 11 µM and the TGI [36] was 38.9 µM. For the same compound, the GI50 [37] was 11.1 µM, the TGI [37] was 26.6 µM and the GI50 [38] was 5.48 µM. The TGI [38] was over 100 µM, the GI50 [39] was 17.3 µM and the TGI [39] was 38.5 µM. It also gave a GI50 [40] of 19.5 µM, a TGI [40] of 56.4 µM and a GI50 [41] of 16.3 µM. For the same compound, the TGI [41] was over 100 µM, the GI50 [42] was 17.4 µM and the TGI [42] was 42.6 µM. For the same compound, the GI50 [43] was 13.7 µM, the TGI [43] was 34 µM and the GI50 [44] was 14.6 µM. It also gave a TGI [44] of 53.5 µM, a GI50 [45] of 8.22 µM and a TGI [45] of 25.4 µM. It also gave a GI50 [46] of 5.45 µM, a TGI [46] of 27.6 µM and a GI50 [47] of 4.27 µM. The TGI [47] was 34 µM, the GI50 [48] was 12.7 µM and the TGI [48] was 30.8 µM. The GI50 [49] was 16.4 µM, the TGI [49] was 45.8 µM and the GI50 [50] was 23.1 µM. For the same compound, the TGI [50] was 54.4 µM, the GI50 [51] was 30.6 µM and the TGI [51] was over 100 µM. For the same compound, the GI50 [52] was 20.8 µM, the TGI [52] was over 100 µM and the GI50 [53] was 21.2 µM. The TGI [53] was over 100 µM, the GI50 [54] was 19.9 µM and the TGI [54] was over 100 µM. The GI50 [55] was 17.8 µM and the TGI [55] was 50.9 µM.
